From PMC6199744, “Development of Chemical Proteomics for the Folateome and Analysis of the Kinetoplastid Folateome” (ACS Infectious Diseases, 2018)
Where two headings read alike, the source gives them in different places.

Legend:
Type in all cases: binding
[1] = biological target: T1, HeLa cell extract proteins (Homo sapiens, UniProt Q99623)
T1 construct: endogenous in cells; host or cells: HeLa cell extract

[2] = biological target: T2, HeLa cell extract proteins (Homo sapiens, UniProt P20073)
T2 construct: endogenous in cells; host or cells: HeLa cell extract
T2 sequence (P20073 1-488): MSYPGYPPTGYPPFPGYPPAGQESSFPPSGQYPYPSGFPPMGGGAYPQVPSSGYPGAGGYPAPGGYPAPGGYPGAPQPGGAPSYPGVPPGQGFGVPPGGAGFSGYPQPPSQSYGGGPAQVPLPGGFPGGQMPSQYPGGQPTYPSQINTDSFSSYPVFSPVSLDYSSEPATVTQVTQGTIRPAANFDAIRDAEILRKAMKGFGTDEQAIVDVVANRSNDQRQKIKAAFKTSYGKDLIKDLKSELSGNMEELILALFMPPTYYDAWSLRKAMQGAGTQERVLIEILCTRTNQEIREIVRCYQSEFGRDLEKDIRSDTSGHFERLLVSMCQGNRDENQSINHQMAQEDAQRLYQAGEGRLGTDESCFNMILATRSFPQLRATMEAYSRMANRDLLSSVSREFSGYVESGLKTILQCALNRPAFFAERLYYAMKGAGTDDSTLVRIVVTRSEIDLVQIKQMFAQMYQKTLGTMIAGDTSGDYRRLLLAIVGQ

[3] = biological target: T3, HeLa cell extract proteins (Homo sapiens, UniProt Q9Y230)
T3 construct: endogenous in cells; host or cells: HeLa cell extract

[4] = biological target: T4, HeLa cell extract proteins (Homo sapiens, UniProt P61160)
T4 construct: endogenous in cells; host or cells: HeLa cell extract

[5] = biological target: T5, HeLa cell extract proteins (Homo sapiens, UniProt P57678)
T5 construct: endogenous in cells; host or cells: HeLa cell extract
T5 sequence (P57678 1-1058): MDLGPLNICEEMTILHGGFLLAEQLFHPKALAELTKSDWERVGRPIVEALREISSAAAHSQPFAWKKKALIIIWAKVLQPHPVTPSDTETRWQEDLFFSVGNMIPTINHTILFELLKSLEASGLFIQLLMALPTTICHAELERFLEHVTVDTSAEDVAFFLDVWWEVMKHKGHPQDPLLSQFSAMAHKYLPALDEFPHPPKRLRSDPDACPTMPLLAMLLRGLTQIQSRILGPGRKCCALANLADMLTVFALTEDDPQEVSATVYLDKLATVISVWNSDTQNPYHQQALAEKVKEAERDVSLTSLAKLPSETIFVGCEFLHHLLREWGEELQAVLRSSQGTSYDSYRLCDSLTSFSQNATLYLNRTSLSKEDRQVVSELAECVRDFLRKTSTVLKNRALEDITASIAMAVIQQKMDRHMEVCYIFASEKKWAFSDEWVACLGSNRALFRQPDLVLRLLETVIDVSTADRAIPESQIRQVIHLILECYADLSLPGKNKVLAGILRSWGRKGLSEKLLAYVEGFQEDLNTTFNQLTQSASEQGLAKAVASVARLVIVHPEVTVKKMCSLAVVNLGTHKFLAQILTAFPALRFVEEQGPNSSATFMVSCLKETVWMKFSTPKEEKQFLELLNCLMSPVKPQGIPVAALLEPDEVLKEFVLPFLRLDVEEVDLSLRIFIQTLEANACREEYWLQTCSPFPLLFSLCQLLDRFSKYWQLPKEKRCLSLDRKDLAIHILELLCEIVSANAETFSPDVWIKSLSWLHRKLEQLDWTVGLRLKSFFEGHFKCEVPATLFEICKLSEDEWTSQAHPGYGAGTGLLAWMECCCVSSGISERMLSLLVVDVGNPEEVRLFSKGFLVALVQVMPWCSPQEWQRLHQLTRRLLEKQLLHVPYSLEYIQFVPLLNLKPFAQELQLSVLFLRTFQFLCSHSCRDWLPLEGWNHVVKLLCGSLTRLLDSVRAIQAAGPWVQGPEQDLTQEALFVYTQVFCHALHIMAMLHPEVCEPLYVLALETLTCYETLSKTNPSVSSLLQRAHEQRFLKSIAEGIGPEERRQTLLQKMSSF

[6] = biological target: T6, HeLa cell extract proteins (Homo sapiens, UniProt Q5T8D3)
T6 construct: endogenous in cells; host or cells: HeLa cell extract
T6 sequence (Q5T8D3 1-534): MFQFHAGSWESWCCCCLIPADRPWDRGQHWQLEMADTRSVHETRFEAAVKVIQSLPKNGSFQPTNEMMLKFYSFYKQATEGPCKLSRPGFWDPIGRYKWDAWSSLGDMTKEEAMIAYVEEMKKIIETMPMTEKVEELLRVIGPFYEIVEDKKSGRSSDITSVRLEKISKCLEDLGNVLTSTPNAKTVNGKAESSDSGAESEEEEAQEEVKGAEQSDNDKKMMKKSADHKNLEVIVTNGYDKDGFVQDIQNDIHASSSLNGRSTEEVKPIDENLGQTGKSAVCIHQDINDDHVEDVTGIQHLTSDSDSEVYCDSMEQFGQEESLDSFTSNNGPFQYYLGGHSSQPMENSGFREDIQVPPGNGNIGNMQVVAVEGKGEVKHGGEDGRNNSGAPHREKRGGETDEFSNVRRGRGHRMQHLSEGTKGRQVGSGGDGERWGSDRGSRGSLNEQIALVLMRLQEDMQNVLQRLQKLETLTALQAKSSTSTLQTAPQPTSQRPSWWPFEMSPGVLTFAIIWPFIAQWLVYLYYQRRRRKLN

T1 sequence (Q99623 whole entry): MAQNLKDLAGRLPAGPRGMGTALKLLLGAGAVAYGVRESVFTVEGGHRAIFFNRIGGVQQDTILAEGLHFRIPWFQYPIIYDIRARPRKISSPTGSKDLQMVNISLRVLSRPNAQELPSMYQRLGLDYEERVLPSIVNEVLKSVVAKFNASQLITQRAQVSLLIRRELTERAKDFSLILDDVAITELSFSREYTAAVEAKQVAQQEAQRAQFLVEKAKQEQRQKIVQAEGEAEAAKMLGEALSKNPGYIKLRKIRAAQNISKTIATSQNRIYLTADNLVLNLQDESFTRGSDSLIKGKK
T3 sequence (Q9Y230 whole entry): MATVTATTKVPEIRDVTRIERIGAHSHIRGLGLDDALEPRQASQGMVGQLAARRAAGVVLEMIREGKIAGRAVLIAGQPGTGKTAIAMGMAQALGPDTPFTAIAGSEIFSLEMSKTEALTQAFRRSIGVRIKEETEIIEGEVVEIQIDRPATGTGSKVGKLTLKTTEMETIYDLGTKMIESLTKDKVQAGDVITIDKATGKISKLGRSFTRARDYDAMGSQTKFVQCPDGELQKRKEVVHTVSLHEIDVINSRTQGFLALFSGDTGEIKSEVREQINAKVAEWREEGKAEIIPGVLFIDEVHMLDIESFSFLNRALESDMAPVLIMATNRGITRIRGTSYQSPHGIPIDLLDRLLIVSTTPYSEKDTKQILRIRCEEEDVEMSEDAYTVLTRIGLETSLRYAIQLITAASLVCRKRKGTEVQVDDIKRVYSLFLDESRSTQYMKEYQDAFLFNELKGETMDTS

Row | Structure (SMILES) | fold changes relative to vehicle control ([1]; protein PHB2, HeLa) | fold changes relative to vehicle control ([2]; HeLa, protein ANXA7) | fold changes relative to vehicle control ([3]; protein RUVBL2, HeLa) | fold changes relative to vehicle control ([4]; HeLa, protein ACTR2) | fold changes relative to vehicle control ([5]; HeLa, protein GEMIN4) | fold changes relative to vehicle control ([6]; HeLa, captured protein ACBD5) | fold changes relative to vehicle control ([1]; HeLa, protein PHB2) | fold changes relative to vehicle control ([2]; protein ANXA7, HeLa) | fold changes relative to vehicle control ([4]; protein ACTR2, HeLa) | fold changes relative to vehicle control ([5]; captured protein GEMIN4, HeLa) | fold changes relative to vehicle control ([6]; HeLa, protein ACBD5) | fold changes relative to vehicle control [1] | fold changes relative to vehicle control [2] | fold changes relative to vehicle control [3] | fold changes relative to vehicle control [4] | fold changes relative to vehicle control [5] | fold changes relative to vehicle control [6]
1 | Nc1nc2c(c(=O)[nH]1)N(C=O)C(CNc1ccc(C(=O)N[C@@H](CCC(=O)O)C(=O)O)cc1)CN2 (stereo partly drawn) [LEU, leucovorin] | 0.85 | 0.98 | 0.85 | 0.99 | 0.93 | 1.01 | – | – | – | – | – | – | – | – | – | – | –
2 | NCCCNc1ccc(C(=O)NC(CCC(=O)O)C(=O)O)cc1 (stereo not drawn) [compound 7] | 1 | 0.83 | 0.95 | 0.97 | 0.99 | 1.03 | – | – | – | – | – | – | – | – | – | – | –
3 | CCCCCCOc1cccc(Cc2cnc(N)nc2N)c1 [compound 2] | – | – | 1.34 | – | – | – | 0.91 | 1.58 | 1.44 | 0.92 | 1.13 | – | – | – | – | – | –
4 | CCCCCCOc1ccc(Cc2cnc(N)nc2N)cc1 [compound 1] | – | – | 1.03 | – | – | – | 0.95 | 1.06 | 1.06 | 0.88 | 1.13 | – | – | – | – | – | –
5 | Nc1nc2cccc(-c3ccccc3)c2n1Cc1ccc(Cl)c(Cl)c1 [compound 3] | – | – | 1.02 | – | – | – | 1.04 | 0.91 | 1.13 | 1.02 | 0.92 | – | – | – | – | – | –
6 | NCCOCCOCC(=O)Nc1nc2ncc(CNc3ccc(C(=O)NC(CCC(=O)O)C(=O)O)cc3)nc2c(=O)[nH]1 (stereo not drawn) [compound 6] | 0.95 | 1.13 | 1.06 | 1.18 | 1.02 | 1.09 | – | – | – | – | – | – | – | – | – | – | –
7 | Nc1nc2[nH]cc(CCc3ccc(C(=O)N[C@@H](CCC(=O)O)C(=O)O)cc3)c2c(=O)[nH]1 [PTX, pemetrexed] | – | – | – | – | – | – | – | – | – | – | – | 0.86 | 1.02 | 0.87 | 1.08 | 0.94 | 0.88
